Measured values from patent publication US3943256A (priority 1974, dated 1976).
“Also recorded” adds a separate entry of the source. Read-outs that look alike come from different tables or passages of the source.

Assays:
mouse [1] = tested on: mouse; set-up: species or system male CF-1 mice; conditions: in vivo
dogs [2] = conditions: dog, in vivo
[3] = in vivo; cited from earlier work
mouse [4] = tested on: mouse; set-up: species or system male CF-1 mice; unit not given here; conditions: in vivo
[5] = tested on: flurothyl induced convulsions; conditions: in vivo; cited from earlier work
dogs [6] = conditions: dog, in vivo; cited from earlier work
mouse [7] = conditions: in vivo
mouse [8] = conditions: in vivo; cited from earlier work

Q: Which “MOUSE […]., VOL. %” value (mouse [1]) does the source give for `FC(F)OC(F)(F)C(F)C(F)(F)F` (stereo not drawn) [III, Difluoromethyl 1,1,2,3,3,3-hexafluoropropyl ether] here?
A: 2.0 VOL. %

Q: For `FC(F)OC(F)(C(F)F)C(F)F` [IV, Difluoromethyl 1,1,2,3,3-pentafluoro-2-propyl ether], which “MOUSE […]., VOL. %” value (mouse [1]) is on record?
A: 1.2 VOL. %

Q: And the “[…] (type of convulsions)” value (mouse [1])?
A: C[…] SEDATION

Q: And the “convulsant effect in dogs” value (dogs [2])?
A: OPISTHOTONOID

Q: Which “MOUSE […]., VOL. %” value (mouse [1]) does the source give for `FC(F)C(F)(F)COC(F)(F)F` [VI] here?
A: ≤ 0.5 VOL. %

Q: What about the convulsions and death [3] of the same molecule?
A: VIOLENT C[…] DEATH

Q: What about the “time to violent convulsions and death” value [3] of the same molecule?
A: 30 to 120 s

Q: With `COC(C(F)(F)F)C(F)(F)F` [XXI] as the molecule, how does the “MOUSE AC50” value (mouse [4]) read?
A: 2.2

Q: What about the “convulsant effect in dogs” value (dogs [2]) of the same molecule?
A: NON[…] DOGS

Q: And the “antagonism to flurothyl induced convulsions” value [5]?
A: ANTAGONIST

Q: For `FC(F)OC(C(F)F)C(F)(F)F` (stereo not drawn) [XI], which “MOUSE AC50” value (mouse [4]) is on record?
A: 0.84

Q: Which “MOUSE AC50” value (mouse [4]) does the source give for `FCOC(C(F)F)C(F)(F)F` (stereo not drawn) [XVI] here?
A: 0.84

Q: With `COC(C(F)F)C(F)(F)F` (stereo not drawn) [XXII] as the molecule, how does the “MOUSE AC50” value (mouse [4]) read?
A: 1.5

Q: For `COCC(F)(F)C(F)(F)F` [XIX, methyl 2,2,3,3,3-pentafluoropropyl ether], which “MOUSE AC50” value (mouse [4]) is on record?
A: 11

Q: And the effect in dogs (dogs [6])?
A: EXTENSOR RIGIDITY OF HIND LEGS; also recorded: TREMORS

Q: For `FC(F)OC(F)C(F)(F)C(F)(F)F` (stereo not drawn) [IX], which “MOUSE AC50” value (mouse [4]) is on record?
A: 4.3

Q: Which “MOUSE AC50” value (mouse [4]) does the source give for `COC(C(F)F)C(F)F` [XXIII] here?
A: 1.4

Q: Which results are given for `FCOC(F)(C(F)F)C(F)(F)F` (stereo not drawn) [XIV]?
A: MOUSE AC50 (mouse [4]): 2.5; convulsant effect in dogs (dogs [2]): NON[…] DOGS

Q: For `COC(F)(F)C(F)(F)C(F)(F)F` [XVII], which cause of death (mouse [7]) is on record?
A: DEATH DUE TO ANOXIA

Q: Which “MOUSE AC50” value (mouse [4]) does the source give for `FCOC(F)(F)C(F)C(F)(F)F` (stereo not drawn) [XIII] here?
A: 2.1

Q: Which results are given for `FCOC(C(F)(F)F)C(F)(F)F` [XV]?
A: MOUSE AC50 (mouse [4]): 1.4; convulsant effect in dogs (dogs [2]): NON[…] DOGS

Q: For `COCC(F)(F)C(F)F` [XX], which “MOUSE AC50” value (mouse [4]) is on record?
A: 2.5

Q: With `FC(F)(F)COCC(F)(F)F` [VII, flurothyl] as the molecule, how does the “[…] (type of convulsions)” value (mouse [1]) read?
A: CLONIC AND TONIC CONVULSIONS

Q: And the “time to clonic and tonic convulsions” value (mouse [1])?
A: 30 s

Q: And the “MOUSE […]., VOL. %” value (mouse [8])?
A: ≤ 0.25 VOL. %

Q: With `FC(F)OC(C(F)F)C(F)F` [XII] as the molecule, how does the “MOUSE AC50” value (mouse [4]) read?
A: 0.64

Q: What does the source list for `FCOCC(F)(F)C(F)(F)F` [V, Fluoromehtyl 2,2,3,3,3-pentafluoropropyl ether]?
A: MOUSE […]., VOL. % (mouse [1]): 1.5 VOL. %; […] (type of convulsions) (mouse [1]): METRAZOLE-LIKE CONVULSIONS

Q: Which results are given for `FC(F)OC(F)C(F)(F)C(F)F` (stereo not drawn) [VIII]?
A: MOUSE AC50 (mouse [4]): 0.61; convulsant effect in dogs (dogs [2]): NON[…] DOGS

Q: With `FC(F)OCC(F)(F)C(F)(F)F` [II, Difluoromethyl 2,2,3,3,3-pentafluoropropyl ether] as the molecule, how does the “MOUSE […]., VOL. %” value (mouse [1]) read?
A: 1.4 VOL. %

Q: And the “[…] (type of convulsions)” value (mouse [1])?
A: CLONIC AND TONIC CONVULSIONS, CATALEPSY

Q: Which “MOUSE AC50” value (mouse [4]) does the source give for `FC(F)OC(C(F)(F)F)C(F)(F)F` [X] here?
A: 2.5

Q: What about the “convulsant effect in dogs” value (dogs [2]) of the same molecule?
A: NON[…] DOGS

Q: Which “MOUSE […]., VOL. %” value (mouse [1]) does the source give for `FC(F)OCC(F)(F)C(F)F` [I, Difluoromethyl 2,2,3,3-tetrafluoropropyl ether] here?
A: 1.0 VOL. %

Q: What about the “[…] (type of convulsions)” value (mouse [1]) of the same molecule?
A: CLONIC CONVULSIONS

Q: For `COC(F)(F)C(F)C(F)(F)F` (stereo not drawn) [XVIII, methyl 1,1,2,3,3,3-hexafluoropropyl ether], which “MOUSE AC50” value (mouse [4]) is on record?
A: 3.9
